Data as given in patent US20170129916A1, “NOVEL BETULINIC PROLINE IMIDAZOLE DERIVATIVES AS HIV INHIBITORS” (HETERO RESEARCH FOUNDATION, priority 2014, published 2017).

Experiments:
[1] = system: HIV-1 strains, for e.g., 92HT599; test: Antiviral activity: p24 estimation in MT-2 cells infected with HIV-1; type: cell-based; details: Human immunodeficiency virus 1, MT2; MT-2 cells infected with HIV-1, p24, ~96 hours; read-out: Antiviral activity IC50 (nM) Efficacy IC50
Procedure: MT-2 cells were infected with required number of TCID50's of HIV-1 strains, for e.g., 92HT599. The infected cells were plated at the concentration of 30, 000 cells per well in a 96 well plate. Test compound was added to the 96 well plate with the final concentration of DMSO (vehicle—not more than 1%). The plates are then incubated in a CO2 incubator for ˜96 hours (˜4 days) for viral infection. At the end of incubation period an aliquot from each well was taken for p24 estimation. The quantitation of p24 is an estimated index for antiviral activity of the compound. Percent inhibition was calculated with reference to control values (vehicle controls).
p-24 estimation was carried out using Advance biosciences kit as per the procedure detailed by supplier.

[2] = Single dose oral pharmacokinetic study; type: in vivo; details: mouse, mice, 30 mg/kg, plasma; for AUC(0-t): read-out: Mice oral PK @30 mg/kg AUC 0-t; for Cmax: read-out: Mice oral PK @30 mg/kg Cmax
Procedure: The test item was administered through oral route to animals (rat/mice) at 30 mg/kg dose in a suitable vehicle at 10 ml/kg dose volume. Blood samples (˜50 uL at each time point) were collected from retro-orbital plexus using K3 EDTA as anticoagulant in eppend; orf tubes at defined time intervals under light ether anesthesia. The samples were centrifuged at 3500×g to separate plasma and stored at −80° C. until analysis.
Sample analysis: Test samples were analyzed using LC-MS-MS after developing fit-for-purpose method for each of test compound.

Row | Compound | IC50 [1] [nM] | AUC(0-t) [2] [µg·h/mL] | Cmax [2] [ng/mL]
1 | C=C(C)[C@@H]1CC[C@]2(C(=O)N3C[C@H](OCCOC)C[C@H]3c3nc(-c4ccccc4)c[nH]3)CC[C@]3(C)[C@H](CC[C@@H]4[C@@]5(C)CC[C@H](OC(=O)[C@H]6C[C@@H](C(=O)O)C6(C)C)C(C)(C)[C@@H]5CC[C@]43C)[C@@H]12 [Compound 7, (1R,3S)-3-((((1R,3aS,5aR,5bR,7aR,9S,11aR,11b,13aR,13bR)-3a-((2S,4R)-4-(2-methoxyethoxy)-2-(4-phenyl-1H-imidazol-2-yl)pyrrolidine-1-carbonyl)-5a,5b,8,8,11a-pentamethyl-1-(prop-1-en-2-yl)icosahydro-1H-cyclopenta[a]chrysen-9-yl)oxy)carbonyl)-2,2-dimethylcyclobutane-1-carboxylic acid] | 5.5 | 342 | 12800
2 | C=C(C)[C@@H]1CC[C@]2(C(=O)N3C[C@H](OCCOC)C[C@H]3c3nc(-c4cccc(F)c4)c[nH]3)CC[C@]3(C)[C@H](CC[C@@H]4[C@@]5(C)CC[C@H](OC(=O)[C@H]6C[C@@H](C(=O)O)C6(C)C)C(C)(C)[C@@H]5CC[C@]43C)[C@@H]12 [Compound 8, (11R,3S)-3-((((1R,3aS,5aR,5bR,7aR,9S,11aR,11bR,13aR,13bR)-3a-((2S,4R)-2-(4-(3-fluorophenyl)-1H-imidazol-2-yl)-4-(2-methoxyethoxy)pyrrolidine-1-carbonyl)-5a,5b,8,8,11a-pentamethyl-1-(prop-1-en-2-yl)icosahydro-1H-cyclopenta[a]chrysen-9-yl)oxy)carbonyl)-2,2-dimethylcyclobutane-1-carboxylic acid] | 61.1 | 1240 | 41300
3 | C=C(C)[C@@H]1CC[C@]2(C(=O)N3C[C@H](OCCOC)C[C@H]3c3nc(-c4cccnc4)c[nH]3)CC[C@]3(C)[C@H](CC[C@@H]4[C@@]5(C)CC[C@H](OC(=O)[C@H]6C[C@@H](C(=O)O)C6(C)C)C(C)(C)[C@@H]5CC[C@]43C)[C@@H]12 [Compound 10, (1R,3S)-3-((((1R,3aS,5aR,5bR,7aR,9S,11bR,11bR,13aR,13bR)-3a-((2S,4R)-4-(2-methoxyethoxy)-2-(4-(pyridin-3-yl)-1H-imidazol-2-yl)pyrrolidine-1-carbonyl)-5a,5b,8,8,11a-pentamethyl-1-(prop-1-en-2-yl)icosahydro-1H-cyclopenta[a]chrysen-9-yl)oxy)carbonyl)-2,2-dimethylcyclobutane-1-carboxylic acid] | 2.82 | 301 | 17900
4 | C=C(C)[C@@H]1CC[C@]2(C(=O)N3CCC[C@H]3c3nnc(-c4ccccc4)o3)CC[C@]3(C)[C@H](CC[C@@H]4[C@@]5(C)CC[C@H](OC(=O)[C@H]6C[C@@H](C(=O)O)C6(C)C)C(C)(C)[C@@H]5CC[C@]43C)[C@@H]12 [Compound 11, (1R,3S)-2,2-dimethyl-3-((((1R,3aS,5aR,5bR,7aR,9S,11aR,11bR,13aR,13bR)-5a,5b,8,8,11a-pentamethyl-3a-((S)-2-(5-phenyl-1,3,4-oxadiazol-2-yl)pyrrolidine-1-carbonyl)-1-(prop-1-en-2-yl)icosahydro-1H-cyclopenta[a]chrysen-9-yl)oxy)carbonyl)cyclobutane-1-carboxylic acid] | 5.96 | 403 | 16300
5 | C=C(C)[C@@H]1CC[C@]2(C(=O)N3CCC[C@H]3c3nc(C(C)(C)C)co3)CC[C@]3(C)[C@H](CC[C@@H]4[C@@]5(C)CC[C@H](OC(=O)[C@H]6C[C@@H](C(=O)O)C6(C)C)C(C)(C)[C@@H]5CC[C@]43C)[C@@H]12 [Compound 12, (1R,3S)-3-((((1R,3aS,5aR,5bR,7aR,9S,11aR,11bR,13aR,13bR)-3a-((S)-2-(4-(tert-butyl)oxazol-2-yl)pyrrolidine-1-carbonyl)-5a,5b,8,8,11a-pentamethyl-1-(prop-1-en-2-yl)icosahydro-1H-cyclopenta[a]chrysen-9-yl)oxy)carbonyl)-2,2-dimethylcyclobutane-1-carboxylic acid] | 139 | 395 | 13200
6 | C=C(C)[C@@H]1CC[C@]2(C(=O)N3CCC[C@H]3c3nc(C(C)C)c[nH]3)CC[C@]3(C)[C@H](CC[C@@H]4[C@@]5(C)CC[C@H](OC(=O)[C@H]6C[C@@H](C(=O)O)C6(C)C)C(C)(C)[C@@H]5CC[C@]43C)[C@@H]12 [Compound 14, (1R,3S)-3-((((1R,3aS,5aR,5bR,7aR,9S,11aR,11bR,13aR,13bR)-3a-((S)-2-(4-isopropyl-1H-imidazol-2-yl)pyrrolidine-1-carbonyl)-5a,5b,8,8,11a-pentamethyl-1-(prop-1-en-2-yl)icosahydro-1H-cyclopenta[a]chrysen-9-yl)oxy)carbonyl)-2,2-dimethylcyclobutane-1-carboxylic acid] | 0.138 | 437 | 19600
7 | C=C(C)[C@@H]1CC[C@]2(C(=O)N3CCC[C@H]3c3ncc(-c4ccccc4)o3)CC[C@]3(C)[C@H](CC[C@@H]4[C@@]5(C)CC[C@H](OC(=O)[C@H]6C[C@@H](C(=O)O)C6(C)C)C(C)(C)[C@@H]5CC[C@]43C)[C@@H]12 [Compound 15, (1R,3S)-2,2-dimethyl-3-((((1R,3aS,5aR,5bR,7aR,9S,11aR,11bR,13aR,13bR)-5a,5b,8,8,11a-pentamethyl-3a-((S)-2-(5-phenyloxazol-2-yl)pyrrolidine-1-carbonyl)-1-(prop-1-en-2-yl)icosahydro-1H-cyclopenta[a]chrysen-9-yl)oxy)carbonyl)cyclobutane-1-carboxylic acid] | 124 | 208 | 6510
8 | C=C(C)[C@@H]1CC[C@]2(C(=O)N3CCC[C@H]3c3ncc(C(C)(C)C)o3)CC[C@]3(C)[C@H](CC[C@@H]4[C@@]5(C)CC[C@H](OC(=O)[C@H]6C[C@@H](C(=O)O)C6(C)C)C(C)(C)[C@@H]5CC[C@]43C)[C@@H]12 [Compound 16, (1R,3S)-3-((((1R,3aS,5aR,5bR,7aR,9S,11aR,11bR,13aR,13bR)-3a-((S)-2-(5-(tert-butyl)oxazol-2-yl)pyrrolidine-1-carbonyl)-5a,5b,8,8,11a-pentamethyl-1-(prop-1-en-2-yl)icosahydro-1H-cyclopenta[a]chrysen-9-yl)oxy)carbonyl)-2,2-dimethylcyclobutane-1-carboxylic acid] | 103 | 229 | 7890
9 | C=C(C)[C@@H]1CC[C@]2(C(=O)N3CCC[C@H]3c3nc(-c4ccccc4)co3)CC[C@]3(C)[C@H](CC[C@@H]4[C@@]5(C)CC[C@H](OC(=O)[C@H]6C[C@@H](C(=O)O)C6(C)C)C(C)(C)[C@@H]5CC[C@]43C)[C@@H]12 [Compound 17, (1R,3S)-2,2-dimethyl-3-((((1R,3aS,5aR,5bR,7aR,9S,11aR,11bR,13aR,13bR)-5a,5b,8,8,11a-pentamethyl-3a-((S)-2-(4-phenyloxazol-2-yl)pyrrolidine-1-carbonyl)-1-(prop-1-en-2-yl)icosahydro-1H-cyclopenta[a]chrysen-9-yl)oxy)carbonyl)cyclobutane-1-carboxylic acid] | 58.6 | 219 | 7090
10 | C=C(C)[C@@H]1CC[C@]2(C(=O)N3CCC[C@H]3c3nc(C(C)(C)C)c[nH]3)CC[C@]3(C)[C@H](CC[C@@H]4[C@@]5(C)CC[C@H](OC(=O)[C@H]6C[C@@H](C(=O)O)C6(C)C)C(C)(C)[C@@H]5CC[C@]43C)[C@@H]12 [Compound 18, (1R,3S)-3-((((1R,3aS,5aR,5bR,7aR,9S,11aR,11bR,13aR,13bR)-3a-((S)-2-(4-(tert-butyl)-1H-imidazol-2-yl)pyrrolidine-1-carbonyl)-5a,5b,8,8,11a-pentamethyl-1-(prop-1-en-2-yl)icosahydro-1H-cyclopenta[a]chrysen-9-yl)oxy)carbonyl)-2,2-dimethylcyclobutane-1-carboxylic acid] | 35.8 | 409 | 16400
11 | C=C(C)[C@@H]1CC[C@]2(C(=O)N3CCC[C@H]3c3ncc(-c4ccccc4)[nH]3)CC[C@]3(C)[C@H](CC[C@@H]4[C@@]5(C)CC[C@H](OC(=O)C[C@H]6C[C@@H](C(=O)O)C6(C)C)C(C)(C)[C@@H]5CC[C@]43C)[C@@H]12 [Compound 21, (1R,3R)-2,2-dimethyl-3-(2-oxo-2-(((1R,3aS,5aR,5bR,7aR,9S,11aR,11bR,13aR,13bR)-5a,5b,8,8,11a-pentamethyl-3a-((S)-2-(5-phenyl-1H-imidazol-2-yl)pyrrolidine-1-carbonyl)-1-(prop-1-en-2-yl)icosahydro-1H-cyclopenta[a]chrysen-9-yl)oxy)ethyl)cyclo butane-1-carboxylic acid] | 1.29 | 269 | 13000
